In the Deep4Chem optical property database one finds emission maximum data, which are given here for 51 compounds.

Each structure is given as a SMILES string.

A short description of this series: solvent given as SMILES.

Consider `Cc1cc(C)c(C)c(B(c2c(C)c(C)c(N3c4ccccc4Oc4ccccc43)c(C)c2C)c2c(C)c(C)c(N3c4ccccc4Oc4ccccc43)c(C)c2C)c1C`, for which the emission maximum (in CC(C)(C)c1ccc(-n2c3ccc([Si](c4ccccc4)(c4ccccc4)c4ccccc4)cc3c3cc([Si](c4ccccc4)(c4ccccc4)c4ccccc4)ccc32)cc1) is recorded as 484 nm. Turning to `COc1ccc2c3ccc(OC)cc3c3cc4c(C)cc(=O)oc4cc3c2c1`, for the setting “in ClC(Cl)Cl”, the emission maximum was determined as 475 nm.

With `COc1ccc(-c2cc3c(s2)c(C(=O)c2ccccc2)cc(=O)n3Cc2ccccc2)cc1`, the emission maximum reads like this: (in CC#N) 558 nm; (in ClCCl) 547 nm. `CC1=[N+]2C(=C(C3=CC4OCCOCCOCCOCCOC4C=C3)c3c4ccccc4c(/C=C/c4ccc(N(C)C)cc4)n3[B-]2(F)F)c2ccccc21` (stereo not given): the emission maximum (in CC#N) was found to be 741 nm. For the compound `CCCCCCn1c2cc(C=C(C#N)C#N)sc2c2sc3c(sc4c5sc(C=C(C#N)C#N)cc5n(CCCCCC)c43)c21`, the emission maximum (in ClCCl) amounted to 620 nm. `Cc1nn(-c2ccccc2)c2c1c(=O)oc1ccc(-n3c4ccccc4c4ccccc43)cc12`: the emission maximum (in Cc1ccccc1) stood at 412 nm. For the setting “in ClC(Cl)Cl”, `CC(C)(C)c1ccc2oc3nc4oc5ccc(-n6c7ccccc7c(=O)c7ccccc76)cc5c4cc3c2c1` came in with an emission maximum of 409 nm. `Cc1ccc2nnn(-c3c(C#N)c4c(N)ncnc4n3[C@H]3C[C@H](O)[C@@H](CO)O3)c2c1` showed an emission maximum (in CO) of 419 nm.

For the setting “in ClC(Cl)Cl”, `CC(C)c1cccc(C(C)C)c1-n1c(=O)c2ccc3c4ccc5c(=O)n(-c6c(C(C)C)cccc6C(C)C)c(=O)c6cc7c(-c8ccccn8)nc8cc(c1=O)c2c3c8c7c4c56` came in with an emission maximum of 485 nm. Same read-out and setting: for `CC(C)C[Si](C#Cc1c2c(=O)c3ccccc3c2c(C#C[Si](CC(C)C)(CC(C)C)CC(C)C)c2c(=O)c3ccccc3c12)(CC(C)C)CC(C)C` the value was 567 nm. As for `O=C1c2ccc3c4c(Oc5ccccc5)cc5c6c(ccc(c7c(Oc8ccccc8)cc(c2c37)C(=O)N1c1ccc(O)cc1)c64)C(=O)N(c1ccc(O)cc1)C5=O`, the emission maximum reads like this: (in C1CCOC1) 564 nm; (in CN1CCCC1=O) 592 nm; (in CN(C)C=O) 576 nm.

Regarding `C/C=C/c1cc(OC)cc(OC)c1`, the emission maximum by setting is: (in CC#N) 343 nm; (in CCCCCC) 338 nm.

The compound `CC(C)(C)OC(=O)CN1CCN(c2ccc3c(-c4ccc(I)cc4)c4ccc(=[N+]5CCN(CC(=O)OC(C)(C)C)CC5)cc-4oc3c2)CC1` registered an emission maximum (in ClCCl) of 586 nm.

For `COc1ccc(C2=C(c3ccc(C)cc3)C(c3ccccc3)=[N+]3C2=Nc2c(-c4ccc(OC)cc4)c(-c4ccc(C)cc4)c(-c4ccccc4)n2[B-]3(F)F)cc1`, the emission maximum (in Cc1ccccc1) came out at 709 nm.

Compound `Cn1c(=O)cc(C(=O)c2ccccc2)c2sc(-c3ccc(N(c4ccccc4)c4ccccc4)cc3)cc21` yielded an emission maximum (in CC#N) of 504 nm and an emission maximum (in ClCCl) of 635 nm. As for `CC(C)(C)c1ccc(N(c2ccc(S(=O)(=O)c3ccc(S(=O)(=O)c4ccc(N(c5ccc(C(C)(C)C)cc5)c5ccccc5C(C)(C)C)cc4)cc3)cc2)c2ccccc2C(C)(C)C)cc1`, the emission maximum reads like this: (in Cc1ccccc1) 454 nm; (in c1cc(-n2c3ccccc3c3ccccc32)nc(-n2c3ccccc3c3ccccc32)c1) 463.53 nm. With `CC(C)(C)c1ccc2c(c1)c1cc(C(C)(C)C)ccc1n2-c1ccccc1-c1nccnc1C#N`, the emission maximum stood at 490 nm (in Cc1ccccc1) and 483 nm (in c1cc(-n2c3ccccc3c3ccccc32)cc(-n2c3ccccc3c3ccccc32)c1). Where the note is “in ClCCl”, `Cc1nc(-c2cc(F)ccc2O)n2c1CCCC2` gave an emission maximum of 464 nm. Turning to `CCCCn1c2ccccc2c2ccc3c4cc(-c5ccc(C(F)(F)F)cc5)ccc4n(CCCC)c3c21`, where the note is “in ClC(Cl)Cl”, the emission maximum was found to be 402 nm. `COc1cc(OC)cc(C2=CC(c3ccccc3)=C(c3ccccc3)C2)c1` displayed an emission maximum (in ClCCl) of 449 nm. As for `Cc1ccc(C2C3=C(CCCC3=O)Nc3c2c(=O)oc2ccccc32)cc1` (stereo not given), the emission maximum (in CS(C)=O) turned out to be 441 nm. Where the note is “in O”, `Cc1ccc(N(CC(=O)[O-])CC(=O)[O-])c(OCCOc2cc3cc(-c4ncc(C(=O)[O-])o4)oc3cc2N(CC(=O)[O-])CC(=O)[O-])c1` returned an emission maximum of 500 nm. On to `CCCCn1cc(/C=C/c2cc(=O)oc3cc(C)ccc23)c2ccccc21`, for which the emission maximum runs as follows: (in CS(C)=O) 532 nm; (in ClC(Cl)Cl) 474 nm. `CCCCCCCCCCOc1cc(OCCCCCCCCCC)cc(C2=C3C(/C=C/c4ccc(OC)cc4)=C(C#Cc4ccc(C(C)(C)C)cc4)C(/C=C/c4ccc(OC)cc4)=[N+]3[B-](F)(F)n3c(/C=C/c4ccc(OC)cc4)c(C#Cc4ccc(C(C)(C)C)cc4)c(/C=C/c4ccc(OC)cc4)c32)c1`: for the setting “in ClC(Cl)Cl”, the emission maximum was determined as 756 nm. For the compound `Fc1c(F)c(-n2c3ccccc3c3ccccc32)c(F)c(F)c1-c1nnc(-c2ccccc2)o1`, under “in Cc1ccccc1”, the emission maximum came out at 444 nm. Take `F[Si](c1c2ccccc2cc2ccccc12)(c1c2ccccc2cc2ccccc12)c1c2ccccc2cc2ccccc12`: the emission maximum reads like this: (in C1CCOC1) 416 nm; (in ClC(Cl)Cl) 434 nm. Consider `CCN(CC)c1ccc2c(c1)oc(=O)c1c(=O)oc3c(OC)cccc3c12`, for which the emission maximum (in CS(C)=O) stood at 572 nm and the emission maximum (in ClCCl) worked out at 530 nm. On to `COc1ccc2c(c1)SCC1=C(c3ccccc3)C3=Nc4c(-c5ccccc5)c5c(n4[B-](F)(F)[N+]3=C12)-c1ccc(OC)cc1SC5`, for which the emission maximum (in ClC(Cl)Cl) came to 730 nm. Under “in CO”, `CC1(C)C(/C=C/C2=C(Oc3ccc(CCN=C=S)cc3Cl)C(=C/C=C3/N(CCCS(=O)(=O)[O-])c4ccccc4C3(C)C)/CCC2)=[N+](CCCS(=O)(=O)[O-])c2ccccc21` returned an emission maximum of 797 nm.

As to `CC(C)(C)c1cc2ccc3cc(C(C)(C)C)cc4c(N(c5ccccc5)c5ccccc5)cc(c1)c2c34`, the emission maximum runs as follows: (in C1CCOC1) 455.01 nm; (in CC#N) 483.88 nm; (in CCCCCC) 415 nm. `C#Cc1ccc2cc3c(C)cc(=O)oc3cc2c1` displayed an emission maximum (in CCO) of 437 nm.

For the compound `CCOC(=O)c1[nH]c(C)c(/C=C/C2=[N+]3C(=C(c4cc(OC)cc(OC)c4)c4c(C)c(I)c(/C=C/c5c(C)[nH]c(C(=O)OCC)c5C)n4[B-]3(F)F)C(C)=C2I)c1C`, the emission maximum stood at 713 nm (in C1CCOC1), 731 nm (in CS(C)=O) and 710 nm (in ClCCl). Take `Fc1ccc(N(c2ccc(F)cc2)c2ccc3c4cccc5c(N(c6ccc(F)cc6)c6ccc(F)cc6)ccc(c6cccc2c63)c54)cc1`: the emission maximum (in C1CCCCC1) is 529 nm; the emission maximum (in C1CCOC1) worked out at 544 nm; the emission maximum (in CC#N) stood at 548 nm; the emission maximum (in Cc1ccccc1) is 540 nm; the emission maximum (in ClCCl) stood at 546 nm. Where the note is “in ClCCl”, `CN(C)c1ccc(/C=C/c2ncccn2)cc1` registered an emission maximum of 472 nm.

As for `Cc1ccc(C)n1-c1ccc(C#N)cc1`, the emission maximum reads like this: (in C1CCOC1) 501 nm; (in CCCCCC) 406 nm; (in CCCCCl) 480 nm; (in CCOCC) 479 nm; (in ClCCl) 517 nm. Compound `COc1ccc(-c2cnc(/C=C/c3ccc(OC)c(OC)c3)o2)cc1` showed an emission maximum (in ClCCl) of 435 nm. `Cc1cc2ccccc2cc1C`: for the setting “in C1CCCCC1”, the emission maximum is given as 339.21 nm. `N#CSC1=CC2=C(c3ccccc3)c3cc(SC#N)c(N4CCOCC4)n3[B-](F)(F)[N+]2=C1N1CCOCC1`: the emission maximum came to 628 nm (in CC#N); 623 nm (in CCCCCC); 628 nm (in CCOC(C)=O); 620 nm (in CO); 630 nm (in ClCCl). In turn, `Cc1ccc2nc3cc4ccccc4cc3c(-c3ccccc3)c2c1` returned an emission maximum (in ClCCl) of 521 nm. The compound `CCCCCCC1(CCCCCC)c2ccccc2-c2ccc(-c3ccc(-c4cc(-c5ccccn5)nc(-c5ccccn5)c4)cc3)cc21` had an emission maximum (in ClCCl) of 409 nm. Turning to `COc1ccc(N(c2ccc(OC)cc2)c2ccc(-c3ccc4c(c3)C(=O)c3ccccc3C4=O)cc2)cc1`, the emission maximum by setting is: (in CCCCCC) 571 nm; (in CCOCC) 720 nm; (in Cc1ccccc1) 679 nm; (in ClC(Cl)(Cl)Cl) 646 nm. Where the note is “in CCO”, `O=c1c2cc(F)c(N3CCOCC3)cc2sc2cc(N3CCOCC3)c(F)cc12` showed an emission maximum of 481 nm. For `CCCC1=Cc2nc1ccc1[nH]c(cc1CCC)c1nc(c(OC(C)=O)cc3[nH]c2cc3CCC)C(CCC)=C1`, for the setting “in Cc1ccccc1”, the emission maximum is 650 nm. `CNc1ccc(/C=C/C#N)cc1`: the emission maximum is, setting by setting: (in C1CCCCC1) 368 nm; (in C1CCOC1) 419 nm; (in C1COCCO1) 399 nm; (in CC1CCCCC1) 391 nm; (in CC#N) 421 nm; (in CC(C)O) 408 nm. Also, the emission maximum came out at 414 nm (in CCO), 423 nm (in CO), 404 nm (in ClC(Cl)Cl) and 445 nm (in O).

For the compound `C=CCN(CC=C)c1ccc(-c2cc(-c3ccc(N(CC=C)CC=C)cc3)cc(-c3ccc(N(CC=C)CC=C)cc3)c2)cc1`, the emission maximum (in ClCCl) is 397.56 nm. `O=C(O)CCCCCn1c2ccc(Br)cc2c(=O)c2cc(Br)ccc21` displayed an emission maximum (in O) of 439 nm. For the compound `Cc1ccc2[nH]c(-c3ccc(-c4ccc(-c5ccc(-c6nc7cc(C)ccc7[nH]6)cc5)c(F)c4)cc3)nc2c1`, the emission maximum (in CN(C)C=O) is on record as 423 nm. Consider `Nc1ccc2c(c1)C(=O)c1ccc(N)cc1C2=O`, for which the emission maximum is 594 nm (in CC#N); 616 nm (in CC(C)O); 616 nm (in CCO); 547.6 nm (in CCOC(C)=O); 616 nm (in CO).

In turn, `F[B-]1(F)Oc2ccccc2-c2nc(-c3ccccc3)c3ccccc3[n+]21` gave an emission maximum (in Cc1ccccc1) of 529 nm. In the case of `c1ccc2c(c1)[nH]c1c3[nH]c4ccccc4c3c3nsnc3c21`, the emission maximum by setting is: (in CN(C)C=O) 493 nm; (in Cc1ccccc1) 456 nm; (in ClCCl) 489 nm. In turn, `COc1ccc(C2=Cc3ccc4ccccc4[n+]3[B-](F)(F)O2)cc1` yielded an emission maximum (in ClC(Cl)Cl) of 457 nm.
